In ChEMBL document CHEMBL1201862, “PubChem BioAssay data set” (2004):
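Five compound concentrations were applied to cells in 96-well plates for 48 hours; endpoints were derived by simple linear interpolation of the resulting dose-response curve. GI50 = concentration required for 50% inhibition of growth.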 Active and inactive are the calls of the source. No stated cut-off is given here; in the data, active = GI50 up to about 1.1 µM and inactive = higher.

How the values were obtained:
Experiment in all cases: DTP human tumour cell line panel, 48 h
MDA-MB-435 = system: MDA-MB-435
HCT-116 = system: HCT-116
MCF7 = system: MCF7
OVCAR-3 = system: OVCAR-3
Hs-578T = system: Hs-578T
SK-MEL-2 = system: SK-MEL-2
BT-549 = system: BT-549
SNB-19 = system: SNB-19
UACC-257 = system: UACC-257
NCI-H226 = system: NCI-H226
HT-29 = system: HT-29
CCRF-CEM = system: CCRF-CEM
SK-MEL-5 = system: SK-MEL-5
SF-539 = system: SF-539
OVCAR-8 = system: OVCAR-8
KM12 = system: KM12
NCI/ADR-RES = system: NCI/ADR-RES
SN12C = system: SN12C
T47D = system: T47D
SK-MEL-28 = system: SK-MEL-28

Structure (SMILES)	GI50 (MDA-MB-435)	GI50 (HCT-116)	GI50 (MCF7)	GI50 (OVCAR-3)	GI50 (Hs-578T)	GI50 (SK-MEL-2)	GI50 (BT-549)	GI50 (SNB-19)	GI50 (UACC-257)	GI50 (NCI-H226)	GI50 (HT-29)	GI50 (CCRF-CEM)	GI50 (SK-MEL-5)	GI50 (SF-539)	GI50 (OVCAR-8)	GI50 (KM12)	GI50 (NCI/ADR-RES)	GI50 (SN12C)	GI50 (T47D)	GI50 (SK-MEL-28)
CC[C@H](NC1=C(Cl)C(=O)c2c(O)ccc(O)c2C1=O)C(=O)OC	3.26 µM (inactive)	2.34 µM (inactive)	3.94 µM (inactive)	4.19 µM (inactive)	> 10 µM (inactive)	> 10 µM (inactive)	> 10 µM (inactive)	> 10 µM (inactive)	3.66 µM (inactive)	> 10 µM (inactive)	2.78 µM (inactive)	3.5 µM (inactive)	6.53 µM (inactive)	3.44 µM (inactive)	4.63 µM (inactive)	> 10 µM (inactive)	7.28 µM (inactive)	3.05 µM (inactive)		
O=S(=O)(O)c1ccc(/N=N/c2ccc(/N=N/c3c(O)ccc4ccccc34)cc2)cc1	> 100 µM (inactive)	> 100 µM (inactive)	> 100 µM (inactive)	> 100 µM (inactive)	> 100 µM (inactive)	> 100 µM (inactive)	> 100 µM (inactive)	> 100 µM (inactive)	> 100 µM (inactive)	> 100 µM (inactive)	> 100 µM (inactive)	> 51.3 µM (inactive)	> 91.8 µM (inactive)		> 100 µM (inactive)	98.6 µM (inactive)	> 100 µM (inactive)	> 100 µM (inactive)	97.9 µM (inactive)	> 100 µM (inactive)
N#CC(C#N)/N=N/c1ccc(-c2nc3ccccc3o2)cc1	16.5 µM (inactive)	5.55 µM (inactive)	11.1 µM (inactive)	4.19 µM (inactive)	42 µM (inactive)	12.4 µM (inactive)	12.1 µM (inactive)	24.7 µM (inactive)	4.41 µM (inactive)		12.8 µM (inactive)		2.05 µM (inactive)	12.2 µM (inactive)	23.6 µM (inactive)	20.9 µM (inactive)	17.5 µM (inactive)	13.2 µM (inactive)	4.32 µM (inactive)	6.12 µM (inactive)
O=c1c(-c2ccccc2)c(SCCO)n(-c2ccccc2)c(=S)n1-c1ccccc1	> 100 µM (inactive)	> 100 µM (inactive)	> 100 µM (inactive)	> 100 µM (inactive)	99.5 µM (inactive)	> 100 µM (inactive)	> 100 µM (inactive)	> 100 µM (inactive)	> 100 µM (inactive)	> 100 µM (inactive)	> 100 µM (inactive)	> 100 µM (inactive)	> 100 µM (inactive)		> 100 µM (inactive)	> 100 µM (inactive)	> 100 µM (inactive)	> 100 µM (inactive)		> 100 µM (inactive)
CCOC(=O)C(C(=O)COC(C)(C)C)[C@@H]1C=C[C@H](OC(C)=O)C1 (stereo not given in full)	> 100 µM (inactive)	> 100 µM (inactive)	> 100 µM (inactive)	> 100 µM (inactive)	> 100 µM (inactive)	> 100 µM (inactive)	> 100 µM (inactive)	> 100 µM (inactive)	> 100 µM (inactive)	> 100 µM (inactive)	> 100 µM (inactive)	73.8 µM (inactive)		> 100 µM (inactive)		> 100 µM (inactive)	> 100 µM (inactive)	> 100 µM (inactive)	> 100 µM (inactive)	> 100 µM (inactive)
Nc1nc(-c2ccccc2)c(-c2ccccc2)c(-c2nc(N)nc(-c3ccccc3)c2-c2ccccc2)n1	> 100 µM (inactive)	> 100 µM (inactive)	49.4 µM (inactive)	83.2 µM (inactive)	> 100 µM (inactive)	> 100 µM (inactive)	> 100 µM (inactive)	> 100 µM (inactive)	> 100 µM (inactive)	> 100 µM (inactive)	62.1 µM (inactive)		> 100 µM (inactive)	> 100 µM (inactive)	> 100 µM (inactive)	> 100 µM (inactive)	> 100 µM (inactive)	> 100 µM (inactive)	49.7 µM (inactive)	> 100 µM (inactive)
Cc1nnc(N2C(=O)C(=Cc3ccc(Cl)cc3)N=C2c2ccc(Cl)cc2)nc1/C=C\c1ccc(N(C)C)cc1	> 100 µM (inactive)	> 100 µM (inactive)	> 100 µM (inactive)	> 100 µM (inactive)	> 100 µM (inactive)	> 100 µM (inactive)	> 100 µM (inactive)	> 100 µM (inactive)	> 100 µM (inactive)	> 100 µM (inactive)	> 100 µM (inactive)	> 100 µM (inactive)	> 100 µM (inactive)		> 100 µM (inactive)	> 100 µM (inactive)	> 100 µM (inactive)	> 100 µM (inactive)	> 100 µM (inactive)	> 100 µM (inactive)
O=C1NC(S(=O)(=O)O)=NNC12c1ccccc1-c1ccccc12	> 10 µM (inactive)	> 10 µM (inactive)	> 10 µM (inactive)		> 10 µM (inactive)		> 10 µM (inactive)	> 10 µM (inactive)	> 10 µM (inactive)	> 10 µM (inactive)	> 10 µM (inactive)	> 10 µM (inactive)	> 10 µM (inactive)	> 10 µM (inactive)	> 10 µM (inactive)	> 10 µM (inactive)	> 10 µM (inactive)	> 10 µM (inactive)	4.16 µM (inactive)	> 10 µM (inactive)
Cc1ccc(S(=O)(=O)Nc2ccccc2C=O)cc1	10.5 µM (inactive)	14.8 µM (inactive)	12.4 µM (inactive)	16.9 µM (inactive)	15.8 µM (inactive)	11.9 µM (inactive)	18.6 µM (inactive)	21.5 µM (inactive)	18 µM (inactive)	14.6 µM (inactive)	22.8 µM (inactive)		11.9 µM (inactive)	0.569 µM (active)	14.7 µM (inactive)	16.1 µM (inactive)	14.6 µM (inactive)	16.1 µM (inactive)	14.9 µM (inactive)	21.3 µM (inactive)
COc1ccc(-n2c(C)nc3ccc(NC4OCC(OC(C)=O)C(OC(C)=O)C4OC(C)=O)cc3c2=O)cc1 (stereo not given)	> 100 µM (inactive)	> 100 µM (inactive)	> 100 µM (inactive)	> 100 µM (inactive)	> 100 µM (inactive)	> 100 µM (inactive)	> 100 µM (inactive)	> 100 µM (inactive)	> 100 µM (inactive)	> 100 µM (inactive)	> 100 µM (inactive)		> 100 µM (inactive)		> 100 µM (inactive)	> 100 µM (inactive)	> 100 µM (inactive)	> 100 µM (inactive)	> 100 µM (inactive)	> 100 µM (inactive)
Cc1sc2nc3n(c(=O)c2c1C)N=C(c1ccc(Cl)cc1)CS3	> 100 µM (inactive)	> 100 µM (inactive)	> 100 µM (inactive)	> 100 µM (inactive)	82.6 µM (inactive)		31.6 µM (inactive)		> 100 µM (inactive)	> 100 µM (inactive)	> 100 µM (inactive)	> 100 µM (inactive)	> 100 µM (inactive)	> 100 µM (inactive)	> 100 µM (inactive)	> 100 µM (inactive)	> 100 µM (inactive)	> 100 µM (inactive)	> 100 µM (inactive)	> 100 µM (inactive)
N=C(N)n1nc2c(c1O)CCC2	> 100 µM (inactive)	> 100 µM (inactive)	> 100 µM (inactive)	> 100 µM (inactive)	> 100 µM (inactive)	> 100 µM (inactive)	> 100 µM (inactive)	> 100 µM (inactive)	> 100 µM (inactive)	> 100 µM (inactive)	> 100 µM (inactive)	> 100 µM (inactive)	> 100 µM (inactive)	> 100 µM (inactive)	> 100 µM (inactive)		> 100 µM (inactive)	> 100 µM (inactive)		> 100 µM (inactive)
O=C1CCc2cc(Br)ccc2O1	> 100 µM (inactive)	42 µM (inactive)	12.6 µM (inactive)	> 100 µM (inactive)	22.4 µM (inactive)	> 100 µM (inactive)	62.8 µM (inactive)	25 µM (inactive)	> 100 µM (inactive)	> 100 µM (inactive)	> 100 µM (inactive)	> 100 µM (inactive)	26.4 µM (inactive)	32.9 µM (inactive)	> 100 µM (inactive)			92.9 µM (inactive)	73.3 µM (inactive)	> 100 µM (inactive)
O=C1C2=Nc3ccccc3C(O)(C(=O)O)N2c2ccccc21 (stereo not given)	2.26 µM (inactive)	20 µM (inactive)	19.9 µM (inactive)	14 µM (inactive)	27.7 µM (inactive)	13.3 µM (inactive)	> 10 µM (inactive)		10.7 µM (inactive)	> 100 µM (inactive)	21.2 µM (inactive)	21.9 µM (inactive)	14 µM (inactive)	26.4 µM (inactive)	17.5 µM (inactive)	26.9 µM (inactive)	29.6 µM (inactive)	28.8 µM (inactive)		43.9 µM (inactive)
CC(C)(C)c1cc(C2=NNC(c3ccccc3)C2)cc(C(C)(C)C)c1O (stereo not given)	12.8 µM (inactive)	14.2 µM (inactive)	13.8 µM (inactive)	3.88 µM (inactive)	19.1 µM (inactive)	14.8 µM (inactive)	17.1 µM (inactive)	18 µM (inactive)	14.3 µM (inactive)	17.2 µM (inactive)	17.7 µM (inactive)		11 µM (inactive)	19.8 µM (inactive)	16.7 µM (inactive)	13.6 µM (inactive)	17 µM (inactive)	16.6 µM (inactive)	10.2 µM (inactive)	15.9 µM (inactive)
